{
  "source": "patent US10865412B2",
  "about": "“Therapeutics targeting IGFBP7 for the treatment or prevention of heart failure and metabolic diseases” (Ottawa Heart Institute Research Corporation, priority 2016, dated 2020)",
  "key": {"[1]": {"tested_on": "IGF-1/Insulin induced AKT activation", "assay": "IGF-1/Insulin induced AKT/GSK3β activation (immunoblotting) in human cardiac myocytes", "format": "cell-based", "details": "HCM with IGFBP7 siRNA, ppp pre-treatment 1 or 10 μM for 1 h, IGF-1 (100 ng/ml) 15 min", "method": "Indeed, in FIG. 9, human cardiac myocytes were treated with (−)control siRNA and IGFBP7 siRNA for 48 h, followed by replacement with basic medium (serum and growth factors withdrew) for 4 h. In FIG. 9(a), the cells were then stimulated with IGF1 (100 ng/ml) or Insulin (4 μg/ml) for 15 min, before lyses of the cell for immunoblotting. Representative immunoblotting of phosphor-AKT, total AKT, phosph-GSK3β and total GSK3β are shown. GAPDH was used as loading control. In FIG. 9(b), before adding IGF-1, cells were pre-treated with IGF-1R inhibitor Picropodophyllin (PPP) ppp at 1 or 10 μM for 1 h, and finally stimulated with IGF-1 (100 ng/ml) for 15 min. Representative immunoblotting of phosphor-AKT and total AKT showing reduced AKT activity in IGFBP7 knock down cells is shown. GAPDH was used as loading control. […] GAPDH were used as loading control.\nWhole-cell lysates from tissue and cell samples were prepared on ice with Cell Lysis Buffer (Cell Signaling, 9803) containing a Complete cocktail of proteases inhibitors (Roche Applied Science, 05892791001). […] The supernatants were collected and protein concentrations determined using the Bio-Rad Bradford protein assay (Bio-Rad, 500-0006). […] The intensity of the chemiluminescence signals were detected by using the ChemiDoc XRS+ System (Bio-Rad, 1708265) and quantified using Image Lab software (version 5.2; Bio-Rad). […]"}, "[2]": {"tested_on": "IGF-1 Receptor β and Akt phosphorylation", "assay": "IGF-1 receptor-dependent signaling (immunoblotting) in IGFBP7 deficient and WT MEF", "format": "cell-based", "details": "ppp 1 or 10 μM for 1 h, IGF-1 (100 ng/ml) 15 min"}, "IGFBP7 protein": {"tested_on": "IGFBP7 protein", "assay": "IGFBP7 protein expression (immunoblotting) in rat neonatal cardiomyocytes treated with hypertrophic stimuli", "format": "cell-based", "details": "vs solvent treated control", "method": "In order to investigate where Igfbp7 is localized under stress, immunofluorescent staining were used to visualize Igfbp7 in rNCM 2 and 24 hours post treatment. As shown in FIG. 3(b), Igfbp7 were evenly distributed in untreated control cells. Hypertrophic stimuli not only led to increased Igfbp7 expression, but also led to Igfbp7 being localized to the cell membrane. Co-immunostaining with FM1-43 as shown (FIG. 3(c)), upon isoproterenol treatment, Igfbp7 (red) not only moved to cell membrane region, but also co-localized with FM1-43 labeled membrane bound vesicle (green), indicating Igfbp7 was trapped into the membrane bound vesicles for secretion.\nNC represents solvent treated control. FIGS. 3(b) and 3(c) show representative confocal microscopy images. […] IGFBP7 was immunofluoresently stained with Alexa Fluor 555 labeled anti-IGFBP7 antibody.\nWhole-cell lysates from tissue and cell samples were prepared on ice with Cell Lysis Buffer (Cell Signaling, 9803) containing a Complete cocktail of proteases inhibitors (Roche Applied Science, 05892791001). Lysates were cleared by centrifugation at 12,000 rpm for 10 min. The supernatants were collected and protein concentrations determined using the Bio-Rad Bradford protein assay (Bio-Rad, 500-0006). 20 μg of protein lysate were separated by Bolt Bis-Tris Plus mini Gel System (ThermoFisher) and electrophoretically transferred to PVDF membranes (Bio-Rad, 162-0177). Membranes were incubated overnight at 4° C. with antibodies reactive to the following proteins: IGFBP7 (Abcam, ab171085, 1:1000), CTGF (Abcam, ab6992, 1:1000), 53BP1 (Santa Cruz Biotechnology, sc-22760, 1:200), p21 (Santa Cruz Biotechnology, sc-397, 1:200), Acetyl-p53 (Lys379) (Cell Signaling, #2570, 1:1000), p53 (1C12) (Cell Signaling, #2524, 1:1000), Phospho-IRS-1 (Ser612) (Cell Signaling, #3203, 1:500), Phospho-IRS-1 (Ser318) (Cell Signaling, #5610, 1:500), IRS-1 (Cell signaling, #3407, 1:500), Phospho-Akt (Ser473) (Cell Signaling, #4060, 1:1000), Phospho-Akt (Thr308) (Cell Signaling, #4056, 1:1000), Akt (pan) (Cell Signaling, #4691, 1:1000), Phospho-Erk1/2 (Thr202/Tyr204) (Cell Signaling, #4307, 1:1000), Erk1/2 (Cell Signaling, #9102, 1:1000), Phospho-GSK-3β (Ser9) (Cell Signaling, #9323, 1:1000), GSK-3β (Cell Signaling, #9315, 1:1000), Phospho-IGF-1 Receptor β ((Thy1135) (Cell Signaling, #3918, 1:500), IGF-1 Receptor β (Cell Signaling, #9750, 1:500). […] The intensity of the chemiluminescence signals were detected by using the ChemiDoc XRS+ System (Bio-Rad, 1708265) and quantified using Image Lab software (version 5.2; Bio-Rad). […]"}, "[3]": {"tested_on": "IGF-1/Insulin induced AKT and Gsk3β activation", "assay": "IGF-1/Insulin induced Akt and Gsk3β activation in HCM with internal over-expression of IGFBP7", "format": "cell-based, human", "details": "HCM transfected with IGFBP7 plasmid, inhibitor 500 nM for 1 h before IGF-1 or Insulin 15 min"}, "[4]": {"tested_on": "IGF-1/Insulin induced AKT and Gsk3β activation", "assay": "Effect of external recombinant IGFBP7 protein on IGF-1/Insulin induced AKT and Gsk3β activation in HCM", "format": "cell-based, human", "details": "HCM pretreated with recombinant protein for 2 h, then IGF-1 or insulin 15 min", "method": "HCM were pretreated with recombinant IGFBP7 protein at indicated concentration for 2 h, followed by IGF-1 or insulin induction for 15 min. Vinculin was used as loading control.\nWhole-cell lysates from tissue and cell samples were prepared on ice with Cell Lysis Buffer (Cell Signaling, 9803) containing a Complete cocktail of proteases inhibitors (Roche Applied Science, 05892791001). Lysates were cleared by centrifugation at 12,000 rpm for 10 min. The supernatants were collected and protein concentrations determined using the Bio-Rad Bradford protein assay (Bio-Rad, 500-0006). 20 μg of protein lysate were separated by Bolt Bis-Tris Plus mini Gel System (ThermoFisher) and electrophoretically transferred to PVDF membranes (Bio-Rad, 162-0177). […] The intensity of the chemiluminescence signals were detected by using the ChemiDoc XRS+ System (Bio-Rad, 1708265) and quantified using Image Lab software (version 5.2; Bio-Rad). […]\nTo generate IGFBP7 expression plasmid, human IGFBP7 CDS with 6× His Epitope tag added to the 3′-end were generated by GeneArt gene synthesis and subcloned into pcDNA3.4 TOPO TA Cloning vector (ThermoFisher) to make plasmid pcDNA3.4-hIGFBP7-6× His. […] Expression of secreted IGFBP7-6× His recombinant protein in culture media was monitored daily by immonoblotting with anti 6× His Epitope Tag antibody (ThermoFisher, MA1-21315). […]"}},
  "data": [
    {"molecule": "COc1cc([C@@H]2c3cc4c(cc3[C@H](O)[C@H]3COC(=O)[C@@H]23)OCO4)cc(OC)c1OC", "note": "[Picropodophyllin, picropodophyllin]", "values": [
      {"measurement": "AKT activation after IGF-1 stimulation in IGFBP7 knock down cells", "setting": "[1]", "result": "further reduced"},
      {"measurement": "AKT phosphorylation in IGFBP7 deficient MEF", "setting": "[2]", "result": "further reduced"},
      {"measurement": "AKT phosphorylation in WT MEF", "setting": "[2]", "result": "not in WT MEF"},
      {"measurement": "IGF-1R phosphorylation in IGFBP7 deficient MEF", "setting": "[2]", "result": "further reduced"}
    ]},
    {"molecule": "insulin", "values": [
      {"measurement": "IGFBP7 protein expression", "setting": "IGFBP7 protein; insulin 4 μg/ml", "result": "significantly up-regulated"}
    ]},
    {"molecule": "C[C@@]1(C(=O)Nc2ccc(F)nc2)CCCN1c1nc(Nc2cc(C3CC3)n[nH]2)c2cccn2n1", "note": "[BMS-754807]", "values": [
      {"measurement": "IGF-1/Insulin induced AKT and GSK3β activation increased by internal over-expression of IGFBP7", "setting": "[3]", "result": "blocked"}
    ]},
    {"molecule": "CNC[C@H](O)c1cccc(O)c1", "note": "[phenylephrine]", "values": [
      {"measurement": "IGFBP7 protein expression", "setting": "IGFBP7 protein; phenylephrine 200 nM", "result": "significantly up-regulated"}
    ]},
    {"molecule": "CC(C)NCC(O)c1ccc(O)c(O)c1", "note": "(stereo not shown) [isoproterenol]", "values": [
      {"measurement": "IGFBP7 protein expression", "setting": "IGFBP7 protein; isoproterenol 100 nM", "result": "significantly up-regulated"}
    ]},
    {"molecule": "angiotensin II (DRVYIHPF; Angiotensin-2; UniProt P01019 25-32, looked up) [hypertrophic stimulus]", "values": [
      {"measurement": "IGFBP7 protein expression", "setting": "IGFBP7 protein; 100 nM angiotensin II", "result": "significantly up-regulated"}
    ]},
    {"molecule": "recombinant IGFBP7 protein: recombinant human IGFBP7 protein with 6× His tag expressed in Expi293F cells (protein, UniProt Q16270 27-282, looked up, 6xHis tag, recombinant human IGFBP7 protein with 6× His tag expressed in Expi293F cells) Insulin-like growth …: SSSDTCGPCEPASCPPLPPLGCLLGETRDACGCCPMCARGEGEPCGGGGAGRGYCAPGMECVKSRKRRKGKAGAAAGGPGVSGVCVCKSRYPVCGSDGTTYPSGCQLRAASQRAESRGEKAITQVSKGTCEQGPSIVTPPKDIWNVTGAQVYLSCEVIGIPTPVLIWNKVKRGHYGVQRTELLPGDRDNLAIQTRGGPEKHEVTGWVLVSPLSKEDAGEYECHASNSQGQASASAKITVVDALHEIPVKKGEGAEL", "values": [
      {"measurement": "Effect on IGF-1/Insulin induced AKT and Gsk3β activation", "setting": "[4]", "result": "no observed effect"}
    ]}
  ]
}
